Laboratory results from patent US11117900B2 (Vertex Pharmaceuticals Incorporated, priority 2012, dated 2021).

What follows are molecules tested on HCT116 colorectal cancer cells (assay: Cisplatin sensitization assay (96 h MTS cell viability)). Details: Cisplatin sensitization value.
Assay type: cell-based
How it was run: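 The MTS viability read, after 1 h with reagent, followed 96 h of co-treatment at 37° C. in 5% CO2. Both compound and cisplatin were titrated 2-fold from a 10 μM top final concentration in a complete concentration matrix on HCT116 cells. Scores +++/++/+ reflect cisplatin sensitization value ranges.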
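Further: compound concentration needed to lower the IC50 of Cisplatin alone by a set fold.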

Compound | Cisplatin Sensitization Assay
CC1(C)CCCN1c1ccncc1NC(=O)c1c(N)nn2cc(F)cnc12 [I-N-220, 2-amino-N-(4-(2,2-dimethylpyrrolidin-1-yl)pyridin-3-yl)-6-fluoropyrazolo[1,5-a]pyrimidine-3-carboxamide] | ++ (Compounds with a Cisplatin sensitization value >0.02 μM but <0.2 μM are marked with “++.”)
Nc1nn2cc(F)cnc2c1C(=O)Nc1cncc(F)c1N1CCN(C(=O)C2CC3CCCCN3C2)CC1 (stereo not shown) [I-N-203, 2-amino-6-fluoro-N-(5-fluoro-4-(4-(octahydroindolizine-2-carbonyl)piperazin-1-yl)pyridin-3-yl)pyrazolo[1,5-a]pyrimidine-3-carboxamide] | +++ (Compounds with a Cisplatin sensitization value of <0.02 μM are marked with “+++.”)
Nc1nn2cc(F)cnc2c1C(=O)Nc1cncc(F)c1N1CCN(S(=O)(=O)C2CC2)CC1 [I-N-159, 2-amino-N-(4-(4-(cyclopropylsulfonyl)piperazin-1-yl)-5-fluoropyridin-3-yl)-6-fluoropyrazolo[1,5-a]pyrimidine-3-carboxamide] | +++ (Compounds with a Cisplatin sensitization value of <0.02 μM are marked with “+++.”)
Nc1nn2cc(F)cnc2c1C(=O)Nc1cnccc1-c1ccc(C(=O)N2CCN(C3COC3)CC2)cc1F [I-C-51, 2-amino-6-fluoro-N-(4-(2-fluoro-4-(4-(oxetan-3-yl)piperazine-1-carbonyl)phenyl)pyridin-3-yl)pyrazolo[1,5-a]pyrimidine-3-carboxamide] | ++ (Compounds with a Cisplatin sensitization value >0.02 μM but <0.2 μM are marked with “++.”)
Nc1nn2cc(F)cnc2c1C(=O)Nc1cncc(C2CC2)c1N1CCN([C@@H]2CCOC2)CC1 [I-N-119, (R)-2-amino-N-(5-cyclopropyl-4-(4-(tetrahydrofuran-3-yl)piperazin-1-yl)pyridin-3-yl)-6-fluoropyrazolo[1,5-a]pyrimidine-3-carboxamide] | ++ (Compounds with a Cisplatin sensitization value >0.02 μM but <0.2 μM are marked with “++.”)
N#C[C@@H]1CCN(c2c(Cl)cncc2NC(=O)c2c(N)nn3cc(F)cnc23)C1 [I-N-285, (R)-2-amino-N-(5-chloro-4-(3-cyanopyrrolidin-1-yl)pyridin-3-yl)-6-fluoropyrazolo[1,5-a]pyrimidine-3-carboxamide] | ++ (Compounds with a Cisplatin sensitization value >0.02 μM but <0.2 μM are marked with “++.”)
CO[C@@H]1CCN(C(=O)C2CCN(c3ccncc3NC(=O)c3c(N)nn4cc(F)cnc34)CC2)C1 [I-G-93, (R)-2-amino-6-fluoro-N-(4-(4-(3-methoxypyrrolidine-1-carbonyl)piperidin-1-yl)pyridin-3-yl)pyrazolo[1,5-a]pyrimidine-3-carboxamide] | +++ (Compounds with a Cisplatin sensitization value of <0.02 μM are marked with “+++.”)
Nc1nn2cc(F)cnc2c1C(=O)Nc1cncc(F)c1N1CCN(C2CCOC2)CC1 (stereo not shown) [I-N-122, 2-amino-6-fluoro-N-(5-fluoro-4-(4-(tetrahydrofuran-3-yl)piperazin-1-yl)pyridin-3-yl)pyrazolo[1,5-a]pyrimidine-3-carboxamide] | ++ (Compounds with a Cisplatin sensitization value >0.02 μM but <0.2 μM are marked with “++.”)
Nc1nn2cc(F)cnc2c1C(=O)Nc1cncc(F)c1N1CCC(C(=O)NC2COC2)CC1 [I-G-37, 2-amino-6-fluoro-N-(5-fluoro-4-(4-(oxetan-3-ylcarbamoyl)piperidin-1-yl)pyridin-3-yl)pyrazolo[1,5-a]pyrimidine-3-carboxamide] | ++ (Compounds with a Cisplatin sensitization value >0.02 μM but <0.2 μM are marked with “++.”)
CN1CC2(CCN(c3ccncc3NC(=O)c3c(N)nn4cc(F)cnc34)CC2)OC1=O [I-N-216, 2-amino-6-fluoro-N-(4-(3-methyl-2-oxo-1-oxa-3,8-diazaspiro[4.5]decan-8-yl)pyridin-3-yl)pyrazolo[1,5-a]pyrimidine-3-carboxamide] | +++ (Compounds with a Cisplatin sensitization value of <0.02 μM are marked with “+++.”)
